Drawing on ChEMBL document CHEMBL5465560, “Selectivity Literature for EUbOPEN Chemogenomic Library” (2024), this text covers % of inhibition, % binding and % of control for five molecules.

Experiment [1] addresses T1, Eukaryotic elongation factor 2 kinase (Homo sapiens) (UniProt O00418).
T1 sequence (whole entry): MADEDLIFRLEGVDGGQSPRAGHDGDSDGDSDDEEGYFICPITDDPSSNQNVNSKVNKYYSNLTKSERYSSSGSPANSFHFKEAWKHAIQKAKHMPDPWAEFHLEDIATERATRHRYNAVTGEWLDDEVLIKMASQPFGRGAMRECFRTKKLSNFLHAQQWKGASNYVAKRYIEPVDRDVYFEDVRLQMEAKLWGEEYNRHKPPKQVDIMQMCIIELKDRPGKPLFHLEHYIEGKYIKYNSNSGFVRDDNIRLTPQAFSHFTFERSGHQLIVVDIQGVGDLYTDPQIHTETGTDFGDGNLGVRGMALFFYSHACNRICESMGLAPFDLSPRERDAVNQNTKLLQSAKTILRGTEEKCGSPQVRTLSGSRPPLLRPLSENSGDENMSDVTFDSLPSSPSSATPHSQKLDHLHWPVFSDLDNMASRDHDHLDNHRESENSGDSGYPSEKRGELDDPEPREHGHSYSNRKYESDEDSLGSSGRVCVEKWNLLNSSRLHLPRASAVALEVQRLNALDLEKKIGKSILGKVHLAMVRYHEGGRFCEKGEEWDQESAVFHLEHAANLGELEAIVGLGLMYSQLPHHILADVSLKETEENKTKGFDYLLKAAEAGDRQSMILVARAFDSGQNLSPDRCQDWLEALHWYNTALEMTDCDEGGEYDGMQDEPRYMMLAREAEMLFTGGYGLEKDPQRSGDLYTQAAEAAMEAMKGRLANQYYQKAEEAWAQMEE
As to the kind of experiment: Selectivity interaction (SelectScreen profiling (Invitrogen)) EUB0000607a EEF2K. The conditions noted are these: at 2 µM.

Experiment [2] concerns the target Ribosomal protein S6 kinase beta-1 (Homo sapiens, UniProt P23443). As to the kind of experiment: Selectivity interaction (KinomeScan (DiscoverX)) EUB0000229b RPS6KB1. Particulars: at 10 µM.
Experiment [3] deals with T2, Phosphatidylinositol 5-phosphate 4-kinase type-2 alpha (Homo sapiens) (UniProt P48426).
T2 sequence (whole entry): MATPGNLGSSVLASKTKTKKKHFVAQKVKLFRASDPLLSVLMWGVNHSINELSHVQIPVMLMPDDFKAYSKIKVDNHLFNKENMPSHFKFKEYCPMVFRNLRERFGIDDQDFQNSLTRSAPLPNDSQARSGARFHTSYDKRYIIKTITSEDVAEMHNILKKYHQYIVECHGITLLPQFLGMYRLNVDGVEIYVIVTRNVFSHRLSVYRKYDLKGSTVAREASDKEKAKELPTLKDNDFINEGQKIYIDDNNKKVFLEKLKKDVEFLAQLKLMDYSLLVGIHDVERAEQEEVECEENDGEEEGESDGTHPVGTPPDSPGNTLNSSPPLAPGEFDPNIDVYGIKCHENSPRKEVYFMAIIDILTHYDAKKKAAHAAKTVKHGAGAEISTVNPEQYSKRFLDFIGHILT
As to the kind of experiment: Selectivity interaction (ActivX KiNativ screen (ex vivo kinase selectivity in human PBMCs)) EUB0001619a PIP4K2A. The conditions noted are these: PBMC, at 1 µM. It is filed as cell-based.

For experiment [4], the target named is T3, Receptor-interacting serine/threonine-protein kinase 4 (Homo sapiens) (UniProt P57078).
T3 sequence (whole entry): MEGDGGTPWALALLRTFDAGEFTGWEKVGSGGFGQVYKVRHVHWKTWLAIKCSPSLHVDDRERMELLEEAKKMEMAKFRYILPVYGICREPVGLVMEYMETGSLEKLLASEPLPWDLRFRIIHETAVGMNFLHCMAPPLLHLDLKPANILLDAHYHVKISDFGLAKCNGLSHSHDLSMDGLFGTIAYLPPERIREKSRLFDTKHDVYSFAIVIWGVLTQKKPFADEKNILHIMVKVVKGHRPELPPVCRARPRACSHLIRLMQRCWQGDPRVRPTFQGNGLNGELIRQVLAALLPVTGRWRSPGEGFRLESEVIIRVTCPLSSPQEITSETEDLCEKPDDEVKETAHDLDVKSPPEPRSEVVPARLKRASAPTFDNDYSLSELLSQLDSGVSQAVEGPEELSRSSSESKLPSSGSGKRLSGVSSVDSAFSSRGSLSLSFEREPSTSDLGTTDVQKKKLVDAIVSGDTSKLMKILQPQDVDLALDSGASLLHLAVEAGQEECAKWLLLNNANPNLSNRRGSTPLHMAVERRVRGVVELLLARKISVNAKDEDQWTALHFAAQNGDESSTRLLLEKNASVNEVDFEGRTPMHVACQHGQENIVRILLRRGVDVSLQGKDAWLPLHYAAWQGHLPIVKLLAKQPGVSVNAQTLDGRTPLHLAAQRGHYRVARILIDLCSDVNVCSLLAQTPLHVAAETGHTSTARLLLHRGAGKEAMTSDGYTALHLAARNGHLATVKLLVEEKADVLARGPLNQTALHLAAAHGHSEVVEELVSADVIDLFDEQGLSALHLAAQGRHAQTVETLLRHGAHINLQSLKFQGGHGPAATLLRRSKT
Put plainly: Selectivity interaction (KinomeScan (DiscoverX)) EUB0000045b RIPK4.

For experiment [5], the target named is T4, Muscle, skeletal receptor tyrosine-protein kinase (Homo sapiens) (UniProt O15146).
T4 sequence (whole entry): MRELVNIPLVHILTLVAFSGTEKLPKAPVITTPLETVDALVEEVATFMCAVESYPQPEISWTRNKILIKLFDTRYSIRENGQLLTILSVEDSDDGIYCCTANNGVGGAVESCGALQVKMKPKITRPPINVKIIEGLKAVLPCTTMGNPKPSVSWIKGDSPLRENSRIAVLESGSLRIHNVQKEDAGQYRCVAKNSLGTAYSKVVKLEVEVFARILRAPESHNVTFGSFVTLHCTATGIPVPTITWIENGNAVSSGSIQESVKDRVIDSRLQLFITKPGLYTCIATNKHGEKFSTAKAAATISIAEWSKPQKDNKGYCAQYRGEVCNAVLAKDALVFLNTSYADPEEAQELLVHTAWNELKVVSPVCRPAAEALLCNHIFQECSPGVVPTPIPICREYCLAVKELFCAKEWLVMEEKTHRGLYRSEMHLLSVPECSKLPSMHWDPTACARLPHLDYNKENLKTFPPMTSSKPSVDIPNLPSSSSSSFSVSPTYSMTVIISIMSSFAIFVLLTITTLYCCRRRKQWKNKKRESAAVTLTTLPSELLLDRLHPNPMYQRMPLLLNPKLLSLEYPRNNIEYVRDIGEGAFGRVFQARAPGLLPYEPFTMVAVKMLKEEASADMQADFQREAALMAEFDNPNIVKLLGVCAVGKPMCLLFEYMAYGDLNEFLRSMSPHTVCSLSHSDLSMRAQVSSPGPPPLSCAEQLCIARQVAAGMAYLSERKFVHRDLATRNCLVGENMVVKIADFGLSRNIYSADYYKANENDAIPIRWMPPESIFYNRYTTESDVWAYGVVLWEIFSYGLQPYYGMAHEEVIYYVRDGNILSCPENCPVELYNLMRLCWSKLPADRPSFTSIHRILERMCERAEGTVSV
As to the kind of experiment: Selectivity interaction (KinomeScan (DiscoverX)) EUB0000595a MUSK. The conditions noted are these: at 10 µM.

Chain of Ribosomal protein S6 kinase beta-1 (P23443 whole entry, looked up): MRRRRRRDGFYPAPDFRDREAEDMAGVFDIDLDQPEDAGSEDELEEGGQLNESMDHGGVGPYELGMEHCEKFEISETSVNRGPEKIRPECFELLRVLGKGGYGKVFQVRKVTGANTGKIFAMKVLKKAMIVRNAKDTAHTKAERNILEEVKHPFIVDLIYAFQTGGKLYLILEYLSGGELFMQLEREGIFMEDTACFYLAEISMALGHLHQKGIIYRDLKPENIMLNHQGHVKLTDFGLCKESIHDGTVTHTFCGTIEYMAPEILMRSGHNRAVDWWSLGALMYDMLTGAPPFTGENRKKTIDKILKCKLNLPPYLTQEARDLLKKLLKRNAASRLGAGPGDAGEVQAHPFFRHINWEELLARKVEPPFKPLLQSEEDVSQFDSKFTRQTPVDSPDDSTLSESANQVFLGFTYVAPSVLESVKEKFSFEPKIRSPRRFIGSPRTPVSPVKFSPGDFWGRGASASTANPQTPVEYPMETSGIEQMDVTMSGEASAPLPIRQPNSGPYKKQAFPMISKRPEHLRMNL

`CNC(=O)Nc1ccc(-c2nc(N3CC4CCC(C3)O4)c3cnn(C4CCC5(CC4)OCCO5)c3n2)cc1` came in with a % of inhibition in experiment [1] of 1%.

In the case of `COc1cc(N(C)c2ccnc3ccc(C(F)(F)F)cc23)cc(OC)c1OC`, the % binding in experiment [2] is 71%.

`N#Cc1cccc(-c2c[nH]c3ncnc(N4CCOCC4)c23)c1`: the % of inhibition in experiment [3] turned out to be 15%.

`C=CC(=O)Nc1cc(-n2c(=O)ccc3cnc4ccc(-c5ccc(NS(C)(=O)=O)cc5)cc4c32)ccc1C`: the % of control in experiment [4] (at 1 µM) and in experiment [4] (at 10 µM) was 100% each time.

Regarding `COCC(=O)NC/C=C/c1ccc2ncnc(Nc3ccc(Oc4ccc(C)nc4)c(C)c3)c2c1` [CP-724714], the % of control in experiment [5] came to 100%.
